Columns and labels:
[1] = Oily leakage test using SD-rat model; assay type: in vivo; details: of 26 SD-rats; 0.5 ml olive oil, oral 5 mg orlistat per kg, 6 hours later
Protocol: 7-week old SD-rats were used, 0.5 ml of an olive oil was administered for each group, and a drug was suspended in a 0.25% HPMC solution to be orally administered to the rats (corresponds to 5 mg of orlistat per kg of the body weight). 6 hours later, the evaluation was assessed through the number of rats having oily leakage from their anuses.

[2] = system: triglyceride levels in blood; experiment: Measurement of triglyceride levels in blood by using SD-rat model; assay type: in vivo; details: SD-rats, oral 2.5 mg orlistat per kg
Protocol: Using 7-week old SD-rats (Samtaco Bio Korea Inc.), 1 ml of an olive oil (Samchun Pure Chemical Co., Ltd., Korea) was administered to each group and a drug suspended in a 0.25% HPMC (hydroxypropylmethyl cellulose) solution (Shin-Etsu chemical, Japan) was orally administered to the rats (corresponds to 2.5 mg of orlistat per kg of the body weight). The control group was administered with distilled water instead of the drug suspension. The blood of rats was collected for a fixed time interval, the triglyceride levels in the blood were measured by Cleantech TG-S of Asan Pharmaceutical, and, with the triglyceride level in the blood before testing used as a standard, changes in triglyceride levels in the blood after administration of an olive oil and drugs were plotted in FIG. 4 and Table 4.

[3] = Comparative dissolution test; assay type: physicochemical; details: 900 ml 1% sodium lauryl sulfate, paddle 75 rpm, HPLC-UV
Protocol: A comparative dissolution test was performed on the compositions prepared by Examples 1 to 3 and on the compositions prepared by Comparative Examples 1 and 2.

Population having oily leakage [1]: 17 rats
Dissolution rate at 10 minutes ([3]; Table 1): 7.0%
Dissolution rate at 10 minutes ([3]; Table 3, various porous adsorbents): 7.0%
Compound: CCCCCCCCCCC[C@@H](C[C@@H]1OC(=O)[C@H]1CCCCCC)OC(=O)[C@H](CC(C)C)NC=O [Comparative Example 1, orlistat]
AUC0->12 h (triglyceride level in blood) ([2]; 1 ml olive oil): 648.0 ± 203.2 mg·h/dL
Cmax (triglyceride level in blood) ([2]; 1 ml olive oil): 140.7 ± 64.1 mg/dL
Triglyceride level in blood (words, FIG. 4) ([2]; olive oil): did not show an increase

Reference: US20160022818A1, “PHARMACEUTICAL FORMULATION COMPRISING LIPASE INHIBITOR HAVING INCREASED DISSOLUTION RATE AND REDUCED SIDE EFFECTS, AND METHOD FOR PREPARING SAME” (UNIVERSITY-INDUSTRY FOUNDATION, YONSEI UNIVERSITY, priority 2013, published 2016)
